Reference: ChEMBL document CHEMBL1127720, “Adamantane and Nipecotic Acid Derivatives as Novel -Turn Mimics” (Bioorg Med Chem Lett, 1994)

Key:
[1] = biological target: T1, Integrin alpha-IIb/beta-3 (Homo sapiens) (UniProt P05106+P08514); assay: Percent inhibition of platelet aggregation at 50 uM; assay type: functional
[2] = biological target: T1, Integrin alpha-IIb/beta-3 (Homo sapiens); assay: Inhibition of Fibrinogen Receptor at 50 uM; assay type: protein-complex assay
[3] = biological target: T1, Integrin alpha-IIb/beta-3 (Homo sapiens); assay: Percent inhibition of platelet aggregation at 20 uM; assay type: functional

CC(=O)N[C@@H](CCCCN)C(=O)N1CCCC(C(=O)NCCC(=O)O)C1 (some centres undefined)
inhibition [1]: 86%

CC(C)(C)OC(=O)NC(CCCCN)C(=O)NC12CC3CC(CC(NCC(=O)O)(C3)C1)C2 (centres undefined)
inhibition [2]: 44%
inhibition [3]: 40%

CC(=O)N[C@@H](CCCCN)C(=O)N1CCCC(C(=O)NCC(=O)O)C1 (some centres undefined)
inhibition [2]: 24%
